Earlier results, collected in US20060286181A1, “Diet supplements for causing fast weight loss, improving daytime energy, promoting nighttime relaxation and sleep, controlling appetite and/or increasing metabolism” (priority 2005, published 2006).
Read-outs that look alike come from different tables or passages of the source.

How the values were obtained:
[1] = in vivo
[2] = test system: benzodiazepine binding site in the gamma-aminobutyric acid receptor type A (GABA(A))
[3] = at least three clinical trials
appetite = settings: rats
fatty acid synthesis = settings: rats
ATP:citrate lyase = molecular target: T1, ATP:citrate lyase (Homo sapiens, UniProt P53396)
T1 sequence (P53396 1-1101): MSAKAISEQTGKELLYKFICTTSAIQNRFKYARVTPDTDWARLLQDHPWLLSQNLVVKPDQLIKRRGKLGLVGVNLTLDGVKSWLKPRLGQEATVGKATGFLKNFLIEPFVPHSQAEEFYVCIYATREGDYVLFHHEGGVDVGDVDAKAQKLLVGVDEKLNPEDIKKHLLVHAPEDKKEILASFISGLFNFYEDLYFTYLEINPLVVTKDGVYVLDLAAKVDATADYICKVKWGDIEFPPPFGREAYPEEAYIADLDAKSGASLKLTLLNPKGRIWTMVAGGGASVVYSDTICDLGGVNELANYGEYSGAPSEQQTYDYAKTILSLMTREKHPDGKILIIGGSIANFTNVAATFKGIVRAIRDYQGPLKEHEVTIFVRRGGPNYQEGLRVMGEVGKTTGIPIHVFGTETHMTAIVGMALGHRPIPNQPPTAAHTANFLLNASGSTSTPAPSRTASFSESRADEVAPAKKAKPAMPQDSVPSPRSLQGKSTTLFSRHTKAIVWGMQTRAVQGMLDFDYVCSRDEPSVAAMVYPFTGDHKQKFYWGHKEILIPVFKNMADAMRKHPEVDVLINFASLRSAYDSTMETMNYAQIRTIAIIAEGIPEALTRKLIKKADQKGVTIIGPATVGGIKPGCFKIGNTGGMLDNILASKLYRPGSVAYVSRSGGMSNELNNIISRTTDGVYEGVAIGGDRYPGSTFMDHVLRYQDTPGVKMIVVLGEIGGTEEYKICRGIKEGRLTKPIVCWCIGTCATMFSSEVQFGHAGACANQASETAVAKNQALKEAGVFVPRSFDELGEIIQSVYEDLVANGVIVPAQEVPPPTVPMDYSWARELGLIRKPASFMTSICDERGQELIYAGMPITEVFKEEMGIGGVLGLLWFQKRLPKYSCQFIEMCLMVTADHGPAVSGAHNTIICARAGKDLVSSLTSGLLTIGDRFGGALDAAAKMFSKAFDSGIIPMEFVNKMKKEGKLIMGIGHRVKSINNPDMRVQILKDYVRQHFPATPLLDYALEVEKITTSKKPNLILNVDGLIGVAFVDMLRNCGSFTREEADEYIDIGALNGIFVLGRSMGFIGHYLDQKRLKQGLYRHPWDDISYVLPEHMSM

diet-induced weight gain = settings: mice
[4] = meta-analysis of forty double-blind studies
[5] = not given; remark: listed apart in the source
[6] = daily supplementation with moderate exercise, 8 weeks
[7] = not given; remark: listed apart in the source
[8] = 8 weeks, overweight subjects
[9] = not given; remark: listed apart in the source

For `O=c1cc(-c2ccc(O)cc2)oc2cc(O)cc(O)c12` [Apigenin], the “memory and motor skills” value [1] is listed as “without impairing memory or motor skills”, the “sedation and locomotor activity” value [1] is listed as “sedation and a reduction in locomotor activity” and the “binding to benzodiazepine binding site of GABA(A)” value [2] is listed as “can bind”.
For `N[C@@H](Cc1c[nH]c2ccc(O)cc12)C(=O)O` [Example 5-HTP, 5-hydroxy-L-tryptophan], the “weight loss, safety and efficacy” value [3] is given as “safely and effectively to aid in weight loss”.
For `O=C(O)CC(O)(C(=O)O)C(O)C(=O)O` (centres unmarked) [HCA, Hydroxycitric acid], the appetite (appetite) is given as “repress appetite”, the caloric intake (clinical studies) is given as “reduction caloric intake” and the safety (human clinical trials) is given as “demonstrated safety”. For the same compound, the levels of serotonin (human, in vivo) was “significantly increased”, the “fat oxidation during exercise” value (untrained men and women) was “increasing fat oxidation” and the fatty acid synthesis (fatty acid synthesis) was “inhibit fatty acid synthesis”. The “inhibition of ATP:citrate lyase” value (ATP:citrate lyase) was “competitive inhibitor”.
For `COc1ccc2[nH]cc(CCNC(C)=O)c2c1` [Melatonin], the diet-induced weight gain (diet-induced weight gain) is listed as “reduce diet-induced weight gain”.
For `Cn1c(=O)c2c(ncn2C)n(C)c1=O` [caffeine, Caffeine], the physical endurance [4] is given as “increase physical endurance”, the basal metabolic rate ([5]; in vivo) is given as “increase the basal metabolic rate” and the weight loss ([5]; obese women) is given as “Significant weight loss”. For the same compound, the “binding to and activation of adenosine receptors” value (adenosine receptors) was “binds to, but does not activate”.
In the case of `[Cr]` [chromium, Chromium], the blood cholesterol profile [6] is listed as “improved blood cholesterol profile”, the weight loss ([6]; vs placebo group) is listed as “increased weight loss” and the lean mass ([7]; clinical) is listed as “increase lean mass”. For the same compound, the body fat ([7]; combined with exercise) was “reduce body fat” and the HDL cholesterol ([7]; in vivo) was “increase HDL”.
In the case of Chromium Polynicotinate, the muscle loss [8] is given as “sparing muscle from loss”, the body fat ([8]; vs placebo group) is given as “significant loss of body fat” and the systolic blood pressure (Metabolic Syndrome; compared to control groups) is given as “effective in lowering systolic blood pressure”. For the same compound, the “free radical damage in liver and kidney tissue” value (Metabolic Syndrome; compared to controls) was “less free radical damage”.
For Phosphatidylserine, the cortisol levels ([9]; clinical trials) is given as “lower cortisol levels”, the stress ([9]; clinical trials) is given as “reduce stress” and the exercise capacity ([9]; human, in vivo) is given as “increase exercise capacity”. The mood ([9]; human, in vivo) was “positively affect mood”.
